Patent US20070128217A1 (priority 2003, published 2007)

Key:
[1] = tested on: recombinant human anti-SARS-CoV antibody 03-018; assay type: binding; design: Binding of antibody 03-018 to linear peptides of the N protein of SARS-CoV Urbani / Binding of antibody 03-018 to looped/cyclic peptides of the N protein of SARS-CoV Urbani: unit not given here
[2] = tested on: rabbit serum obtained by immunizing a rabbit with the SARS-CoV strain Frankfurt 1; assay type: binding; design: Binding of a rabbit serum to linear peptides / Binding of a rabbit serum to looped peptides / Rabbit serum linear peptides / Rabbit serum looped peptides / Binding of a rabbit serum to linear peptides of protein N of SARS-CoV Urbani (Rabbit serum linear peptides) / Binding of a rabbit serum to looped/cyclic peptides of protein N of SARS-CoV Urbani (Rabbit serum looped peptides): unit not given here
[3] = tested on: antibodies in sera from SARS patients (sera 1a, 1b, 2, 6, 37, 62, London, SARS-yellow, SARS-green); assay type: binding, human; design: Binding of serum 6 to linear peptides of protein X1 of SARS-CoV Urbani / Binding of serum 37 to linear peptides of protein X1 of SARS-CoV Urbani / Binding of serum 6 to looped/cyclic peptide (PEPSCAN-ELISA) / Binding of serum 37 to looped/cyclic peptide (PEPSCAN-ELISA) / Binding of serum 37 to looped/cyclic peptides of protein X1 of SARS-CoV Urbani / Binding of serum 6 to linear peptides of protein X2 / Binding of serum 37 to linear peptides of protein X2 / Binding of serum 37 to looped/cyclic peptides of protein X2 of SARS-CoV Urbani / Binding of serum 6 to linear peptides of protein M of SARS-CoV Urbani / Binding of serum 37 to linear peptides of protein M of SARS-CoV Urbani / Binding of serum 6 to looped/cyclic peptides of protein M of SARS-CoV Urbani / Binding of serum 37 to looped/cyclic peptides of protein M of SARS-CoV Urbani / Binding of serum 6 to linear peptides of protein X3 of SARS-CoV Urbani / Binding of serum 37 to linear peptides of protein X3 of SARS-CoV Urbani / Binding of serum 37 to looped/cyclic peptides of protein X3 of SARS-CoV Urbani / Binding of serum 6 to linear peptides of protein X4 of SARS-CoV Urbani / Binding of serum 37 to linear peptides of protein X4 of SARS-CoV Urbani / Binding of serum 37 to looped/cyclic peptides of protein X4 of SARS-CoV Urbani / Binding of serum 6 to linear peptides of protein X5 of SARS-CoV Urbani / Binding of serum 37 to linear peptides of protein X5 of SARS-CoV Urbani / Binding of serum 37 to looped/cyclic peptides of protein X5 of SARS-CoV Urbani / Binding of serum 6 to linear peptides of protein N of SARS-CoV Urbani / Binding of serum 37 to linear peptides of protein N of SARS-CoV Urbani / Binding of serum 6 to linear peptide (PEPSCAN-ELISA) / Binding of serum 1a to looped/cyclic peptides of protein N of SARS-CoV Urbani / Binding of serum 1b to looped/cyclic peptides of protein N of SARS-CoV Urbani / Binding of serum 2 to looped/cyclic peptides of protein N of SARS-CoV Urbani / Binding of serum 6 to looped/cyclic peptides of protein N of SARS-CoV Urbani / Binding of serum 37 to looped/cyclic peptides of protein N of SARS-CoV Urbani / Binding of serum 62 to looped/cyclic peptides of protein N of SARS-CoV Urbani / Binding of serum London to looped/cyclic peptides of protein N of SARS-CoV Urbani / Binding of serum SARS-green to looped/cyclic peptides of protein N of SARS-CoV Urbani: unit not given here
[4] = tested on: control sera (pooled serum of ten healthy LUMC hospital workers; commercial negative donor pooled serum from the Dutch bloodbank); assay type: binding, human; design: Binding of Control serum LUMC to linear peptides / Binding of Control serum Blood-bank to linear peptides / Binding of Control serum LUMC to looped peptides / Binding of Control Serum Blood-Bank to Looped peptides / Binding of Control serum LUMC to linear peptides of the protein M of SARS-CoV Urbani / Binding of Control serum Blood-bank to linear peptides of the protein M of SARS-CoV Urbani / Binding of Control serum LUMC to looped peptides of the protein M of SARS-CoV Urbani / Binding of Control Serum Blood-Bank to Looped peptides of the protein M of SARS-CoV Urbani: unit not given here

| Sequence | Binding of antibody 03-018 to linear peptides of the N protein of SARS-CoV Urbani [1] | Binding of antibody 03-018 to looped/cyclic peptides of the N protein of SARS-CoV Urbani [1] | Binding of a rabbit serum to linear peptides of protein N of SARS-CoV Urbani (Rabbit serum linear peptides) [2] | Binding of a rabbit serum to looped/cyclic peptides of protein N of SARS-CoV Urbani (Rabbit serum looped peptides) [2] | Binding of serum 1a to linear peptides of protein N of SARS-CoV Urbani [3] | Binding of serum 1a to looped/cyclic peptides of protein N of SARS-CoV Urbani [3] | Binding of serum 1b to linear peptides of protein N of SARS-CoV Urbani [3] | Binding of serum 1b to looped/cyclic peptides of protein N of SARS-CoV Urbani [3] | Binding of serum 2 to linear peptides of protein N of SARS-CoV Urbani [3] | Binding of serum 2 to looped/cyclic peptides of protein N of SARS-CoV Urbani [3] | Binding of serum 6 to linear peptides of protein N of SARS-CoV Urbani [3] | Binding of serum 6 to looped/cyclic peptides of protein N of SARS-CoV Urbani [3] | Binding of serum 37 to linear peptides of protein N of SARS-CoV Urbani [3] | Binding of serum 37 to looped/cyclic peptides of protein N of SARS-CoV Urbani [3] | Binding of serum 62 to linear peptides of protein N of SARS-CoV Urbani [3] | Binding of serum 62 to looped/cyclic peptides of protein N of SARS-CoV Urbani [3] | Binding of serum London to linear peptides of protein N of SARS-CoV Urbani [3] | Binding of serum London to looped/cyclic peptides of protein N of SARS-CoV Urbani [3] | Binding of serum SARS-green to linear peptides of protein N of SARS-CoV Urbani [3] | Binding of serum SARS-green to looped/cyclic peptides of protein N of SARS-CoV Urbani [3] | further results |
| --- | --- | --- | --- | --- | --- | --- | --- | --- | --- | --- | --- | --- | --- | --- | --- | --- | --- | --- | --- | --- | --- |
| DGKMKELSPRWYFYY | 0.1 | 0.2 | 0.1 | 0.6 | 0.2 | 0.4 | 0.1 | 0.3 | 0.2 | 0.5 | 0.1 | 0.4 | 0.5 | 0.8 | 0.5 | 0.7 | 0.4 | 0.5 | 0.4 | 0.4 | Binding of serum SARS-yellow to linear peptides of protein N of SARS-CoV Urbani [3]: 0.5; Binding of serum SARS-yellow to looped/cyclic peptides of protein N of SARS-CoV Urbani [3]: 0.5; Binding of Control Serum Blood-Bank to Looped peptides [4]: 0.8; Binding of Control serum Blood-bank to linear peptides [4]: 0.8; Binding of Control serum LUMC to linear peptides [4]: 0.6; Binding of Control serum LUMC to looped peptides [4]: 0.7 |
| DHIGTRNPNNNAATV | 0.1 | 0.3 | 0.1 | 0.5 | 0.3 | 0.5 | 0.1 | 0.4 | 0.3 | 0.8 | 0.2 | 0.5 | 0.7 | 1.1 | 0.7 | 0.8 | 0.5 | 0.7 | 0.5 | 0.5 | Binding of serum SARS-yellow to linear peptides of protein N of SARS-CoV Urbani [3]: 0.7; Binding of serum SARS-yellow to looped/cyclic peptides of protein N of SARS-CoV Urbani [3]: 0.6; Binding of Control Serum Blood-Bank to Looped peptides [4]: 0.9; Binding of Control serum Blood-bank to linear peptides [4]: 0.8; Binding of Control serum LUMC to linear peptides [4]: 0.7; Binding of Control serum LUMC to looped peptides [4]: 1.0 |
